Experimental data as given in ChEMBL document CHEMBL5634133, “Indirubin derivatives as bifunctional molecules inducing DNA damage and targeting PARP for the treatment of cancer” (Eur J Med Chem, 2023).
Activity calls are given as the source filed them. No cut-off for these calls is given here.

What was measured:
NCM460 [1] = experiment: Antiproliferative activity against human NCM460 cells assessed as inhibition of cell viability incubated for 72 hrs by CCK8 assay; type: functional, cell-based; details: NCM460, 72 h
A549 [2] = experiment: Antiproliferative activity against human A549 cells assessed as inhibition of cell viability incubated for 72 hrs by CCK8 assay; type: functional, cell-based; details: A549, 72 h
MCF7 [3] = experiment: Antiproliferative activity against human MCF7 cells assessed as inhibition of cell viability incubated for 72 hrs by CCK8 assay; type: functional, cell-based; details: MCF7, 72 h
MV4-11 [4] = experiment: Antiproliferative activity against human MV4-11 cells assessed as inhibition of cell viability incubated for 72 hrs by CCK8 assay; type: functional, cell-based; details: MV4-11, 72 h
HCT-116 [5] = experiment: Antiproliferative activity against human HCT-116 cells assessed as inhibition of cell viability incubated for 72 hrs by CCK8 assay; type: functional, cell-based; details: HCT-116, 72 h
HCT-116 [6] = experiment: Antiproliferative activity against human HCT-116 cells assessed as inhibition of cell viability incubated for 72 hrs in presence of olaparib by CCK8 assay; type: functional, cell-based; details: HCT-116, 72 h
MV4-11 [7] = experiment: Antiproliferative activity against human MV4-11 cells assessed as inhibition of cell viability incubated for 72 hrs in presence of olaparib by CCK8 assay; type: functional, cell-based; details: MV4-11, 72 h
MCF7 [8] = experiment: Antiproliferative activity against human MCF7 cells assessed as inhibition of cell viability incubated for 72 hrs in presence of olaparib by CCK8 assay; type: functional, cell-based; details: MCF7, 72 h
A549 [9] = experiment: Antiproliferative activity against human A549 cells assessed as inhibition of cell viability incubated for 72 hrs in presence of olaparib by CCK8 assay; type: functional, cell-based; details: A549, 72 h
NCM460 [10] = experiment: Antiproliferative activity against human NCM460 cells assessed as inhibition of cell viability incubated for 72 hrs in presence of olaparib by CCK8 assay; type: functional, cell-based; details: NCM460, 72 h
HCT-116 [11] = experiment: Antiproliferative activity against human HCT-116 cells assessed as inhibition of cell viability incubated for 72 hrs in presence of Niraparib by CCK8 assay; type: functional, cell-based; details: HCT-116, 72 h
MV4-11 [12] = experiment: Antiproliferative activity against human MV4-11 cells assessed as inhibition of cell viability incubated for 72 hrs in presence of Niraparib by CCK8 assay; type: functional, cell-based; details: MV4-11, 72 h
MCF7 [13] = experiment: Antiproliferative activity against human MCF7 cells assessed as inhibition of cell viability incubated for 72 hrs in presence of Niraparib by CCK8 assay; type: functional, cell-based; details: MCF7, 72 h
A549 [14] = experiment: Antiproliferative activity against human A549 cells assessed as inhibition of cell viability incubated for 72 hrs in presence of Niraparib by CCK8 assay; type: functional, cell-based; details: A549, 72 h
NCM460 [15] = experiment: Antiproliferative activity against human NCM460 cells assessed as inhibition of cell viability incubated for 72 hrs in presence of Niraparib by CCK8 assay; type: functional, cell-based; details: NCM460, 72 h
HCT-116 [16] = experiment: Antiproliferative activity against human HCT-116 cells assessed as combination index incubated for 72 hrs in presence of olaparib by CCK8 assay; type: functional
MV4-11 [17] = experiment: Antiproliferative activity against human MV4-11 cells assessed as combination index incubated for 72 hrs in presence of olaparib by CCK8 assay; type: functional
MCF7 [18] = experiment: Antiproliferative activity against human MCF7 cells assessed as combination index incubated for 72 hrs in presence of olaparib by CCK8 assay; type: functional
A549 [19] = experiment: Antiproliferative activity against human A549 cells assessed as combination index incubated for 72 hrs in presence of olaparib by CCK8 assay; type: functional
NCM460 [20] = experiment: Antiproliferative activity against human NCM460 cells assessed as combination index incubated for 72 hrs in presence of olaparib by CCK8 assay; type: functional
HCT-116 [21] = experiment: Antiproliferative activity against human HCT-116 cells assessed as combination index incubated for 72 hrs in presence of Niraparib by CCK8 assay; type: functional
MV4-11 [22] = experiment: Antiproliferative activity against human MV4-11 cells assessed as combination index incubated for 72 hrs in presence of Niraparib by CCK8 assay; type: functional
MCF7 [23] = experiment: Antiproliferative activity against human MCF7 cells assessed as combination index incubated for 72 hrs in presence of Niraparib by CCK8 assay; type: functional
A549 [24] = experiment: Antiproliferative activity against human A549 cells assessed as combination index incubated for 72 hrs in presence of Niraparib by CCK8 assay; type: functional
NCM460 [25] = experiment: Antiproliferative activity against human NCM460 cells assessed as combination index incubated for 72 hrs in presence of Niraparib by CCK8 assay; type: functional
HCT-116 [26] = experiment: Antitumor activity against human HCT-116 cells xenografted in BALB/c nude mouse assessed as tumor growth inhibition at 20 mg/kg, ip administered for 14 days relative to control; type: functional; details: Mus musculus, HCT-116, 336 h, time 14 day, read-out: TGI
HCT-116 [27] = experiment: Antitumor activity against human HCT-116 cells xenografted in BALB/c nude mouse assessed as tumor growth inhibition at 20 mg/kg, ip administered for 14 days in presence of Olaparib relative to control; type: functional; details: HCT-116, 336 h, time 14 day, read-out: TGI
HCT-116 [28] = experiment: Induction of DNA damage in human HCT-116 cells assessed as increase in gammaH2AX protein level at 1 uM incubated for 48 hrs in presence of Olaparib by Western blotting analysis; type: functional, cell-based

IC50 (A549 [2]): 8.21 µM | IC50 (MCF7 [3]): 4.1 µM | IC50 (MV4-11 [4]): 6.01 µM | IC50 (HCT-116 [5]): 3.88 µM | IC50 (HCT-116 [6]): 1.37 µM | IC50 (MV4-11 [7]): 2.36 µM | IC50 (MCF7 [8]): 2.33 µM | IC50 (A549 [9]): 6.06 µM | IC50 (HCT-116 [11]): 0.83 µM | IC50 (MV4-11 [12]): 1.69 µM | IC50 (MCF7 [13]): 1.41 µM | IC50 (A549 [14]): 4.17 µM
Compound: O=C1Nc2ccccc2/C1=C1/Nc2ccccc2/C1=N\O
IC50 (NCM460 [1]): 13.1 µM | IC50 (NCM460 [10]): 20.2 µM | IC50 (NCM460 [15]): 21.1 µM | CI (HCT-116 [16]): 0.47 | CI (MV4-11 [17]): 0.57 | CI (MCF7 [18]): 0.59 | CI (A549 [19]): 0.94 | CI (NCM460 [20]): 0.92 | CI (HCT-116 [21]): 0.67 | CI (MV4-11 [22]): 0.72 | CI (MCF7 [23]): 0.47 | CI (A549 [24]): 0.84 | CI (NCM460 [25]): 1 | inhibition in vivo at 20 mg/kg (HCT-116 [26]): 47.4% | inhibition in vivo at 20 mg/kg (HCT-116 [27]): 64.6% | Activity (HCT-116 [28]): Active
